In patent US20260159519A1, “IMIDAZOPYRIDAZINE SUBSTITUTED BENZENE RING DERIVATIVE, PREPARATION METHOD, PHARMACEUTICAL COMPOSITION AND USE” (SHANGHAI SIMR BIOTECHNOLOGY CO., LTD., priority 2022, published 2026):

Columns and labels:
[1] = biological target: T1, human α2-GABAA receptor (BZD site, membrane protein of HEK293 cells) (Homo sapiens, UniProt P18507+P47869); assay: Radioligand competitive binding assay (3H-flunitrazepam) at the BZD site of the α2-GABAA receptor; settings: competition with 1 nM 3H-flunitrazepam; Ki calculated from IC50; read-out: α2 Ki
T1 construct: expressed in transfected cells
Source text: (§1) α subunit, β subunit, and γ subunit are essential for the formation of a complete and functional GABAA receptor. In this example of the present disclosure, HEK293 cells stably expressing the human α1-GABAA receptor (α1-GABAAR) and α2-GABAA receptor (α2-GABAAR) were constructed and separately selected using the lipofection method (Felgner, P. L., et al. Proceedings of the National Academy of Sciences, 1987, 84: 7413-7417). The α1-GABAAR-HEK293 cell model simultaneously expressed the α1 subunit (for protein sequence, see GenBank accession No.: NM_000806.5), the […] (for protein sequence, see GenBank accession No.: NM_000814.5), and the […] (for protein sequence, see GenBank accession No.: NM_000816.3). The α2-GABAAR-HEK293 cell model simultaneously expressed the α2 subunit (for protein sequence, see GenBank accession No.: NM_000807.4), the β3 subunit (for protein sequence, see GenBank accession No.: NM_000814.5), and the γ2 subunit (for protein sequence, see GenBank accession No.: NM_000816.3).
(§2) The above cell lines were subcultured. The α2-GABAAR-HEK293 cells were expanded for testing the affinity of compounds to the benzodiazepine (BZD) site of the GABAA receptor. During the passage process, some of the α1-GABAAR-HEK293 cells and α2-GABAAR-HEK293 cells were suspended and plated on a slide pre-treated with Poly-D-Lysine for electrophysiological testing (method referenced from patent CN107344936A, paragraph 0586).
The affinity of the compounds for the α2-GABAA receptor was determined by competing for the binding of ^3H-flunitrazepam (isotope ^3H-labelled flunitrazepam) to the BZD site on the membrane protein of HEK293 cells stably expressing the human α2-GABAAR.
Membrane preparation: Cells were suspended in 50 mM Tris-HCl buffer (pH=7.4), homogenized 10 times for 20 seconds with a homogenizer on ice, and centrifuged at 1000 g for 10 minutes at 4° C. The supernatant was taken, and the above steps were repeated. The supernatant was centrifuged at 4° C. (33800 g; Thermo, rotor: A27-8×50) for 60 minutes. The precipitate was resuspended in Tris buffer (50 mM Tris-HCl, 10 mM MgCl2, 0.5 mM EDTA, and 10% glycerol). The protein content was determined (BCA (bicinchoninic acid) protein quantification assay based on copper ion reduction, with a BCA kit purchased from Pierce (Annoron (Beijing) Biotechnology Co., Ltd.)), and 1 mL aliquots were prepared and stored at −80° C.
Radioligand competitive binding assay: This assay was performed in a 200 μL system (96-well plate) containing 100 μL of cell membrane. The concentration of ^3H-flunitrazepam was 1 nM, and the concentrations of the test compounds were in the range of […]. Flumazenil was used as a control. 1 μL of 2 mM flumazenil (final […]) was added to each low signal control (low control, LC) well, and 1 μL of dimethyl sulfoxide was added to each high signal control (high control, HC) well. The final concentration of target membrane protein was […]. All sample stock solutions of test compounds were 10 mM dimethyl sulfoxide solutions. All the samples were diluted to a concentration of 0.2 mM with dimethyl sulfoxide, and then subjected to a 4-fold serial dilution for a total of 8 working concentration gradients. The 96-well plate was sealed with a sealing membrane and then incubated on a shaker at room temperature for 1 hour. Meanwhile, a GF/C filter plate was soaked in plate soaking buffer (0.3% PEI (polyethyleneimine, purchased from Sigma-Aldrich, model: P314), stored at 4° C.) for at least 0.5 hours. After the binding incubation was completed, the cells were harvested onto the GF/C filter plate using a cell harvester and washed four times with plate washing buffer (50 mM Tris-HCl, pH 7.4, stored at 4° C.). After drying in an oven at 50° C. for 1 hour, the dried GF/C filter plate was bottom-sealed. The residual radioactivity on the filter membrane was detected by liquid scintillation counting.

[2] = biological target: T2, human α1-GABAA receptor (α1-GABAAR-HEK293 cells) (Homo sapiens, UniProt P14867+P18507); assay: Whole-cell patch-clamp electrophysiology, positive allosteric modulatory activity on α1-GABAA receptor; assay type: cell-based; settings: read-out: α1-GABAA positive allosteric modulatory activity
T2 construct: expressed in transfected cells
Source text: as §1, §2
(§3) The positive regulatory activity of the test drugs on the α1-GABAA receptor and the α2-GABAA receptor was detected by the electrophysiological method. The specific method was as follows:
(§4) Compound concentration setting: The final concentration of the compounds used for screening was 100 nM. For cell lines expressing the α1-GABAA receptor, the concentration of GABA was 0.05 to 0.07 μM (approximately EC2-4). For cell lines expressing the α2-GABAA receptor, the concentration of GABA was 0.10 to 0.11 μM (approximately EC7-8). Electrophysiological testing was performed using the whole-cell patch-clamp technique, which can refer to the method reported in the literature (Nickolls, S. A., et al. British Journal of Pharmacology, 2018, 175: 708-725). The composition of the extracellular solution (ECS) for electrophysiology was as follows: 150 mM NaCl, 5 mM KCl, 2.5 mM CaCl2, 1 mM MgCl2, 10 mM HEPES, and 10 mM glucose (pH 7.4). The formulation of the intracellular solution (ICS) for electrophysiology was as follows: 140 mM CsCl, 11 mM EGTA, 10 mM HEPES, 2 mM CaCl2, 1 mM MgCl2, 4 mM MgATP, and 2 mM TEA (pH 7.3). GABA (γ-aminobutyric acid) powder was prepared into a mother liquor with pure water, which was then diluted in ECS. The compound was first prepared into a 4 mM mother liquor with dimethyl sulfoxide, which was then gradually diluted in the corresponding concentration of GABA-ECS. The solutions were freshly prepared prior to electrophysiological testing.
(§5) Electrophysiological signal acquisition was performed using an EPC 10 amplifier and PatchMaster software (HEKA) or an Axon 700B amplifier and Clampex software (AXON). The recording electrode was made through a drawing process using borosilicate glass, with an electrode resistance of 4 to 6 MΩ. Extracellular administration was performed using the ALA-VC-8PG™ system. A single, independently growing cell was selected. After the glass electrode formed a good seal with the cell, the membrane was ruptured to form the whole-cell configuration. The cell membrane potential was clamped at −60 mV and recorded in Gap-free mode. During the test, the extracellular solution was first applied extracellularly for approximately 20 seconds. After the baseline (Iprebaseline) stabilized, the extracellular solution was switched to GABA-ECS. At this point, the current induced by GABA (Igaba) could be detected. After approximately 10 to 20 seconds, when the current stabilized, the extracellular solution was switched to a mixture of the compound and GABA-ECS. […]

[3] = biological target: T3, human α2-GABAA receptor (α2-GABAAR-HEK293 cells) (Homo sapiens, UniProt P18507+P47869); assay: Whole-cell patch-clamp electrophysiology, positive allosteric modulatory activity on α2-GABAA receptor; assay type: cell-based; settings: read-out: α2-GABAA positive allosteric modulatory activity
T3 construct: expressed in transfected cells
Source text: as §1, §2, §3, §4, §5

| Ki [1] [nM] | activation at 0.1 µM [2] [%] | activation at 0.1 µM [3] [%] | Structure (SMILES) |
| --- | --- | --- | --- |
| 2.43 | 61 | 107 | CCn1cnc2c(-c3ccc(F)c(-c4cc5cn(C6CCN(C)CC6F)nc5cc4OC)c3)cnnc21 (stereo not drawn) [Example 76, 7-Ethyl-4-(4-fluoro-3-(2-(3-fluoro-1-methylpiperidin-4-yl)-6-methoxy-2H-indazol-5-yl)phenyl)-7H-[4,5-c]pyridazine] |
| 1.13 | 66 | 104 | CCn1cnc2c(-c3ccc(F)c(-c4cc5cn(C6CCN(C7COC7)CC6)nc5cc4OC)c3)cnnc21 [Example 77, 7-Ethyl-4-(4-fluoro-3-(6-methoxy-2-(1-(oxetan-3-yl)piperidin-4-yl)-2H-indazol-5-yl)phenyl)-7H-imidazo[4,5-c]pyridazine] |
| 3.91 | 10 | 110 | CCn1cnc2c(-c3ccc(F)c(-c4cc5cn(-c6nccn6C)nc5cc4OC)c3)cnnc21 [Example 78, 7-Ethyl-4-(4-fluoro-3-(6-methoxy-2-(1-methyl-1H-imidazol-2-yl)-2H-indazol-5-yl)phenyl)-7H-imidazo[4,5-c]pyridazine] |
| 2.34 | -25 | 83 | CCn1cnc2c(-c3ccc(F)c(-c4ccc5c(nnn5C)c4OC)c3)cnnc21 [Example 81, 7-Ethyl-4-(4-fluoro-3-(4-methoxy-1-methyl-1H-benzo[d][1,2,3]triazol-5-yl)phenyl)-7H-imidazo[4,5-c]pyridazine] |
| 8.32 | 79 | 115 | CCn1cnc2c(-c3ccc(F)c(-c4cc5oc(C6CCOCC6)nc5cc4OC)c3)cnnc21 [Example 93, 6-(5-(7-Ethyl-7H-imidazo[4,5-c]pyridazin-4-yl)-2-fluorophenyl)-5-methoxy-2-(tetrahydro-2H-pyran-4-yl)benzo[d]oxazole] |
| 4.31 | -2 | 106 | CCn1cnc2c(-c3ccc(F)c(-c4cc5cn(C6CCN(C)CC6)nc5cc4OC)c3)cnnc21 [Example 99, 7-Ethyl-4-(4-fluoro-3-(6-methoxy-2-(1-methylpiperidin-4-yl)-2H-indazol-5-yl)phenyl)-7H-imidazo[4,5-c]pyridazine] |
| 4.46 | 56 | 157 | CCn1cnc2c(-c3ccc(F)c(-c4cc5cn(-c6ccccc6)nc5cc4OC)c3)cnnc21 [Example 101, 7-Ethyl-4-(4-fluoro-3-(6-methoxy-2-phenyl-2H-indazol-5-yl)phenyl)-7H-imidazo[4,5-c]pyridazine] |
| 3.35 | 64 | 102 | CCn1cnc2c(-c3ccc(F)c(-c4cc5cn(C(F)F)nc5cc4OC)c3)cnnc21 [Example 111, 4-(3-(2-(Difluoromethyl)-6-methoxy-2H-indazol-5-yl)-4-fluorophenyl)-7-ethyl-7H-imidazo[4,5-c]pyridazine] |

Further lines, the compound ahead of its results:

| Structure (SMILES) | Ki [1] [nM] | activation at 0.1 µM [2] [%] | activation at 0.1 µM [3] [%] |
| --- | --- | --- | --- |
| COc1cc2c(cc1-c1cc(-c3cnnc4c3ncn4C(C)C)ccc1F)oc(=O)n2C [Example 35, 6-(2-Fluoro-5-(7-isopropyl-7H-imidazo[4,5-c]pyridazin-4-yl)phenyl)-5-methoxy-3-methylbenzo[d]oxazol-2(3H)-one] | 7.73 | 80 | 134 |
| COc1cc2nn(C)cc2cc1-c1cc(-c2cnnc3c2ncn3C(C)C)ccc1F [Example 49, 4-(4-Fluoro-3-(6-methoxy-2-methyl-2H-indazol-5-yl)phenyl)-7-isopropyl-7H-imidazo[4,5-c]pyridazine] | 9.16 | 58 | 94 |
| CCn1cnc2c(-c3ccc(F)c(-c4cc5oc(=O)n(C6CC6)c5cc4OC)c3)cnnc21 [Example 51, 3-Cyclopropyl-6-(5-(7-ethyl-7H-imidazo[4,5-c]pyridazin-4-yl)-2-fluorophenyl)-5-methoxybenzo[d]oxazol-2(3H)-one] | 3.44 | 14 | 90 |
| CCn1cnc2c(-c3ccc(F)c(-c4cc5sc(=O)n(C)c5cc4OC)c3)cnnc21 [Example 53, 6-(5-(7-Ethyl-7H-imidazo[4,5-c]pyridazin-4-yl)-2-fluorophenyl)-5-methoxy-3-methylbenzo[d]thiazol-2(3H)-one] | 3.78 | 21 | 94 |
| CCn1cnc2c(-c3ccc(F)c(-c4cc5ccc(=O)n(C)c5cc4OC)c3)cnnc21 [Example 55, 6-(5-(7-Ethyl-7H-imidazo[4,5-c]pyridazin-4-yl)-2-fluorophenyl)-7-methoxy-1-methylquinolin-2(1H)-one] | 2.43 | 21 | 81 |
| CCn1cnc2c(-c3ccc(F)c(-c4ccc5c(nnn5C5CC5)c4OC)c3)cnnc21 [Example 70, 4-(3-(1-Cyclopropyl-4-methoxy-1H-benzo[d][1,2,3]triazol-5-yl)-4-fluorophenyl)-7-ethyl-7H-imidazo[4,5-c]pyridazine] | 0.5 | -27 | 90 |
| CCn1cnc2c(-c3ccc(F)c(-c4cc5cn(C6CCN(C)CC6(F)F)nc5cc4OC)c3)cnnc21 (stereo not drawn) [Example 74, 4-(3-(2-(3,3-Difluoro-1-methylpiperidin-4-yl)-6-methoxy-2H-indazol-5-yl)-4-fluorophenyl)-7-ethyl-7H-imidazo[4,5-c]pyridazine] | 6.99 | 9 | 104 |
